# In US20120029177A1, “HETEROCYCLE-AMINO ACID DERIVATIVES FOR TARGETING CANCER TISSUE AND RADIOACTIVE OR NON-RADIOACTIVE LABELED COMPOUNDS THEREOF” (SNU R&DB FOUNDATION, priority 2009, published 2012):
# Assays:
# [1] = tested on: SNU-C4 xenografted nude mice; assay: Biodistribution study in SNU-C4 xenografted nude mice after intravenous injection; format: in vivo, mouse; details: for % ID/g Tumor: SNU-C4 tumor
# How it was run: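 Nude mice bearing subcutaneous SNU-C4 xenografts (2×10^5 cells, right shoulder) received 10 μCi ^68Ga-labeled agent i.v. via tail vein on day 13. Tumour, blood and organs were weighed and counted at 10 min, 30 min, 1 h and 2 h; values are % ID/g.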
# CT-26 cells = assay: In vitro cell uptake, CT-26 (FIG. 1b); format: cell-based, mouse; details: controls ^68Ga-DO2A, ^68Ga-DO3A
# Experimental: Human colon cancer cell line SNU-C4 was purchased from Korea Cell Line Bank (KCLB). Human thyroid cell line ARO, human liver cancer cell line Hep3B, human glioma cell line U251MG and U87MG, and mouse colon cell line CT-26 were purchased from American Type Culture Collection (ATCC). SNU-C4 and ARO were culture in RPMI1640 (Welgene Inc., Korea) and Hep3B, U251 MG, U87MG, and CT-26 were cultured in DMEM (Welgene Inc., Korea). Penicillin, streptomycin and amphotericin B (10,000 IU/mL, 10 mg/mL and 25 μg/mL, respectively, Mediatech Inc., U.S.A.) 1% mixture and fetal bovine serum (Welgene Inc., Korea) were added to all cell culture media. Cell culture was done in 37° C. incubator with supply of 5% CO2.
# About 1.8×10^5 cells/mL CT-26 and 1.2×10^5 cells/mL U87MG were put into 24-well incubation plate and incubated for 20 hr. When the each well was about 80% confluent with cells, 296 kBq/0.5 mL of ^68Ga labeled agent was added to each well. Culture supernatants were discarded at each time point and cells were washed with ice-cooled Hank's balanced salt solution (HBSS, pH7.3, Gibco, U.S.A.) 2 times. The cells were dissolved by 0.5% sodium dodecylsulfate (SDS), recovered and counted using a gamma counter (Packard, Can berra Co., U.S.A.). Total protein amount in each sample was measured by bicinchonic acid (BCA, Pierce, U.S.A.) method.
# [2] = tested on: SNU-C4 xenografted nude mice; assay: PET imaging of tumor xenografted mice; format: in vivo, mouse; details: PET at 1 and 2 hr post-injection, FIG. 2
# Experimental: Human colon cancer cell line SNU-C4 was cultured in RPMI1640 media containing 10% fetal bovine serum and harvested using trypsin. The cells were washed using 10 mL PBS and centrifugation at 3,000 rpm. Each nude mouse was injected with 2×10^5 cells/0.1 mL on the right shoulder subcutaneously. On 14 days post-injection, each 10 μCi/0.1 mL of ^68Ga labeled agent was injected into the xenografted mice through the tail vein. The injected mice were anesthetized using 2% isoflurane, PET images were obtained at 1 and 2 hr post-injection using rodent R4, microPET scanner (Concorde Microsystem Inc.). The images were analyzed using ASIPro software (Concorde Microsystem Inc.).
# [3] = 10 min after intravenous injection
# [4] = 30 min after intravenous injection
# [5] = 1 hr after intravenous injection
# [6] = 2 hr after intravenous injection
compound,measurement,setting,value
NC(CN1CCN(CC(=O)[O-])CCNCCN(CC(=O)[O-])CC1)C(=O)[O-].[68Ga+3] (centres unmarked) [^68Ga-DO2A-ala],% ID/g Tumor,[1]; [3],2.88 ± 0.39 % ID/g
same,% ID/g Tumor,[1]; [4],2.30 ± 0.53 % ID/g
same,% ID/g Tumor,[1]; [5],1.05 ± 0.33 % ID/g
same,% ID/g Tumor,[1]; [6],1.08 ± 0.18 % ID/g
same,tumor uptake compared with the control heterocyclic compound (in words),"[1]; SNU-C4 xenografted nude mice, 10 min to 2 hr",always higher than that of ^68Ga-DO2A
same,% ID/g Blood,[1]; [3],7.75 ± 0.97 % ID/g
same,% ID/g Blood,[1]; [4],5.26 ± 1.36 % ID/g
same,% ID/g Blood,[1]; [5],3.12 ± 0.89 % ID/g
same,% ID/g Blood,[1]; [6],1.94 ± 0.24 % ID/g
same,% ID/g Bone,[1]; [3],2.60 ± 0.56 % ID/g
same,% ID/g Bone,[1]; [4],2.22 ± 0.49 % ID/g
same,% ID/g Bone,[1]; [5],1.57 ± 0.52 % ID/g
same,% ID/g Bone,[1]; [6],1.06 ± 0.52 % ID/g
same,% ID/g Heart,[1]; [3],1.98 ± 0.06 % ID/g
same,% ID/g Heart,[1]; [4],1.19 ± 0.34 % ID/g
same,% ID/g Heart,[1]; [5],0.79 ± 0.34 % ID/g
same,% ID/g Heart,[1]; [6],0.45 ± 0.10 % ID/g
same,% ID/g Intestine,[1]; [3],1.91 ± 0.33 % ID/g
same,% ID/g Intestine,[1]; [4],1.40 ± 0.38 % ID/g
same,% ID/g Intestine,[1]; [5],3.91 ± 2.96 % ID/g
same,% ID/g Intestine,[1]; [6],0.77 ± 0.03 % ID/g
same,% ID/g Kidney,[1]; [3],13.33 ± 4.30 % ID/g
same,% ID/g Kidney,[1]; [4],14.50 ± 8.89 % ID/g
same,% ID/g Kidney,[1]; [5],4.71 ± 2.26 % ID/g
same,% ID/g Kidney,[1]; [6],3.99 ± 0.54 % ID/g
same,% ID/g Liver,[1]; [3],1.74 ± 0.25 % ID/g
same,% ID/g Liver,[1]; [4],1.46 ± 0.27 % ID/g
same,% ID/g Liver,[1]; [5],1.39 ± 0.47 % ID/g
same,% ID/g Liver,[1]; [6],0.99 ± 0.04 % ID/g
same,% ID/g Lung,[1]; [3],8.45 ± 0.98 % ID/g
same,% ID/g Lung,[1]; [4],8.23 ± 2.41 % ID/g
same,% ID/g Lung,[1]; [5],4.21 ± 1.47 % ID/g
same,% ID/g Lung,[1]; [6],3.23 ± 0.49 % ID/g
same,% ID/g Muscle,[1]; [3],2.08 ± 0.43 % ID/g
same,% ID/g Muscle,[1]; [4],1.81 ± 0.77 % ID/g
same,% ID/g Muscle,[1]; [5],0.87 ± 0.40 % ID/g
same,% ID/g Muscle,[1]; [6],0.49 ± 0.08 % ID/g
same,% ID/g Spleen,[1]; [3],1.61 ± 0.26 % ID/g
same,% ID/g Spleen,[1]; [4],1.30 ± 0.29 % ID/g
same,% ID/g Spleen,[1]; [5],1.24 ± 0.34 % ID/g
same,% ID/g Spleen,[1]; [6],0.82 ± 0.09 % ID/g
same,% ID/g Stomach,[1]; [3],2.48 ± 0.62 % ID/g
same,% ID/g Stomach,[1]; [4],1.49 ± 0.62 % ID/g
same,% ID/g Stomach,[1]; [5],12.82 ± 7.46 % ID/g
same,% ID/g Stomach,[1]; [6],0.38 ± 0.05 % ID/g
same,tumor cell uptake versus control agents,CT-26 cells,significantly increase tumor cell uptakes
same,tumor uptake in PET images,[2],high tumor uptakes
